Results from patent publication US10279082B2, “Implant with an bioactive coating and method for providing the same” (Biomet Deutschland GmbH, priority 2015, dated 2019).

Legend:
[1] = Wiping test for adherence of the coating (glass substrate, polyester cloth); type: physicochemical; conditions: fosfomycin-Ca about 430 μg/cm^2, rifampicin about 60 μg/cm^2, wiped with polyester cloth
From the text: A substrate, here a glass substrate, was coated at first with a fosfomycin-Ca monohydrate suspension. Subsequently, a part of the glass substrate coated with fosfomycin-Ca was partially coated with rifampicin.
The completely coated substrate was then wiped using a polyester cloth.

[2] = tested on: intracellular staphylococci; conditions: local administration of a pharmaceutical composition comprising rifampin; cited from earlier work

SMILES	adherence of coating after wiping [1]	elimination of intracellular staphylococci [2]
C[C@@H]1O[C@@H]1P(=O)([O-])[O-].O.[Ca+2] [fosfomycin-Ca, fosfomycin-calcium-monohydrate]	largely removed	
CO[C@H]1/C=C/O[C@@]2(C)Oc3c(C)c(O)c4c(O)c(c(/C=N/N5CCN(C)CC5)c(O)c4c3C2=O)NC(=O)/C(C)=C\C=C\[C@H](C)[C@H](O)[C@@H](C)[C@@H](O)[C@@H](C)[C@H](OC(C)=O)[C@@H]1C [rifampin]		reduced within three days
